According to ChEMBL document CHEMBL5321199, “Development of a series of quinazoline-2,5-diamine derivatives as potent hematopoietic progenitor kinase 1 (HPK1) inhibitors” (Eur J Med Chem, 2023):
Activity calls are given as the source filed them. The rule behind the calls is not given here.

Experiments:
[1] = molecular target: T1, Mitogen-activated protein kinase kinase kinase kinase 1 (Homo sapiens, UniProt Q92918); assay: Inhibition of HPK1 (unknown origin) using myelin basic protein as substrate incubated for 60 mins in presence of ATP by ADP-Glo kinase assay
Target sequence in this assay (Q92918 whole entry): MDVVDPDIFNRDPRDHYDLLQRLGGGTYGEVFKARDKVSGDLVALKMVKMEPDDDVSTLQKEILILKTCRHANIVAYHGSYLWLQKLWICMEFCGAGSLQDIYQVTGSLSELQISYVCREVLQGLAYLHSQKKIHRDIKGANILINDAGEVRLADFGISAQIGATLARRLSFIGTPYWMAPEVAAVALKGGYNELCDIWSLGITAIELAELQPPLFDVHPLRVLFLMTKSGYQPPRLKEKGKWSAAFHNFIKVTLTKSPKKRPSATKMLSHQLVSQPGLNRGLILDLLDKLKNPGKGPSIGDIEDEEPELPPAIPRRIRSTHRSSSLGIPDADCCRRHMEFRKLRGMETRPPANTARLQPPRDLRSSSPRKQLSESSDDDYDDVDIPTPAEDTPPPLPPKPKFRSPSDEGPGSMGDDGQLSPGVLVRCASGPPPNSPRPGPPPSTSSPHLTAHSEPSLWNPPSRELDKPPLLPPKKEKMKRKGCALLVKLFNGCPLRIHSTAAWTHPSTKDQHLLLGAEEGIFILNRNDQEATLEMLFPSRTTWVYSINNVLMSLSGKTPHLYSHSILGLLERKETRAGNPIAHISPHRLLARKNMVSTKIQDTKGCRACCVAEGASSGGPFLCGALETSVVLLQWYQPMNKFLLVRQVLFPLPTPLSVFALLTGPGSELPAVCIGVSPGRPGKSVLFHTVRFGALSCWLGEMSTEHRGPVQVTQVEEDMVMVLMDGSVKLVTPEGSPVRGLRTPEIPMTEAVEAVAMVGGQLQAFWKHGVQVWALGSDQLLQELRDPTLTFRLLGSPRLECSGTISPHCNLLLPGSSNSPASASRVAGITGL

[2] = molecular target: T1, Mitogen-activated protein kinase kinase kinase kinase 1; assay: Inhibition of HPK1 (unknown origin) at 100 nM using myelin basic protein as substrate incubated for 60 mins in presence of ATP by ADP-Glo kinase assay relative to control
Target sequence in this assay (Q92918 whole entry, looked up): as the sequence (Q92918 whole entry) above

[3] = molecular target: T1, Mitogen-activated protein kinase kinase kinase kinase 1; assay: Inhibition of HPK1 (unknown origin) at 1 uM using myelin basic protein as substrate incubated for 60 mins in presence of ATP by ADP-Glo kinase assay relative to control
Target sequence in this assay (Q92918 whole entry, looked up): as the sequence (Q92918 whole entry) above

[4] = molecular target: T1, Mitogen-activated protein kinase kinase kinase kinase 1; assay: Inhibition of HPK1 in human Jurkat E6.1 cells assessed as phosphorylation of SLP76 at serine 376 residue incubated for 4 hrs by HTRF assay; assay type: cell-based
Target sequence in this assay (Q92918 whole entry): as above

[5] = molecular target: T1, Mitogen-activated protein kinase kinase kinase kinase 1; assay: Inhibition of HPK1 in human Jurkat E6.1 cells assessed as reduction in SLP76 phosphorylation at Serine 376 residue preincubated with compound for 2 hrs followed by stimulation with alphaCD3/CD28 measured after 10 mins by Western blotting analysis; assay type: cell-based
Target sequence in this assay (Q92918 whole entry): as above

[6] = molecular target: T1, Mitogen-activated protein kinase kinase kinase kinase 1; assay: Inhibition of HPK1 in human Jurkat E6.1 cells assessed as reduction in SLP76 phosphorylation at Serine 376 residue at 33 nM preincubated with compound for 2 hrs followed by stimulation with alphaCD3/CD28 measured after 10 mins by Western blotting analysis; assay type: cell-based; details: time 130.0 min
Target sequence in this assay (Q92918 whole entry, looked up): as the sequence (Q92918 whole entry) above

[7] = molecular target: T1, Mitogen-activated protein kinase kinase kinase kinase 1; assay: Inhibition of HPK1 in human PBMC cells assessed as increase in IL-2 release at above 1 uM preincubated with compound for 1 hr followed by stimulation with alphaCD3/CD28 measured after 48 hrs by ELISA assay; assay type: cell-based; details: time 49.0 hrs
Target sequence in this assay (Q92918 whole entry, looked up): as the sequence (Q92918 whole entry) above

[8] = molecular target: T1, Mitogen-activated protein kinase kinase kinase kinase 1; assay: Inhibition of N-terminal DYKDDDDK tagged HPK1 CD (1 to 346 residues) (unknown origin) incubated for 1 hr in presence of ATP by TR-FRET assay
Target sequence in this assay (Q92918 whole entry): as above

[9] = molecular target: T1, Mitogen-activated protein kinase kinase kinase kinase 1; assay: Inhibition of HPK1 in human PBMC cells assessed as reduction in SLP76 phosphorylation at Ser376 residue preincubated with compound for 1 hr followed by stimulation with CD3/CD28-dynabead by ELISA assay; assay type: cell-based
Target sequence in this assay (Q92918 whole entry): as above

[10] = molecular target: T1, Mitogen-activated protein kinase kinase kinase kinase 1; assay: Inhibition of HPK1 in human PBMC cells assessed as increase in IL-2 release preincubated with compound for 1 hr followed by stimulation with CD3/CD28-dynabead measured after 16 to 18 hrs by ELISA assay; assay type: cell-based
Target sequence in this assay (Q92918 whole entry): as above

[11] = molecular target: T1, Mitogen-activated protein kinase kinase kinase kinase 1; assay: Inhibition of HPK1 in human Jurkat E6.1 cells assessed as reduction in SLP76 phosphorylation at Serine 376 residue at 0.4 to 100 nM preincubated with compound for 2 hrs followed by stimulation with alphaCD3/CD28 measured after 10 mins by Western blotting analysis; assay type: cell-based; details: dose 0.4-100 nM, time 130.0 min
Target sequence in this assay (Q92918 whole entry, looked up): as the sequence (Q92918 whole entry) above

Row | IC50 [1] [nM] | inhibition [2] [%] | inhibition [3] [%] | Compound | other results
1 | 61.4 | 56.2 | 86 | Nc1cc(-c2cccnc2)cc2nc(Nc3cnn(C4CC4)c3)ncc12 | 
2 |  | 1.6 | 33.6 | Nc1cc(-c2ccccc2)cc2nc(Nc3cnn(C4CC4)c3)ncc12 | 
3 | 5.7 |  |  | Cc1c(-c2cc(N)c3cnc(Nc4ccncc4)nc3c2)cnc2c1NCCO2 | 
4 | 3 |  |  | Cc1c(-c2cc(N)c3cnc(Nc4ccc5c(c4)CNCC5)nc3c2)cnc2c1NCCO2 | 
5 | 4.3 |  |  | CNCc1ccc(Nc2ncc3c(N)cc(-c4cnc5c(c4C)NCCO5)cc3n2)cc1 | 
6 | 6 |  |  | CNCCc1cccc(Nc2ncc3c(N)cc(-c4cnc5c(c4C)NCCO5)cc3n2)c1 | 
7 | 61.1 | 53.6 | 90.9 | Cc1c(-c2cc(N)c3cnc(Nc4cnn(C5CC5)c4)nc3c2)cnn1C | 
8 | 5.6 |  |  | CNCCc1ccc(Nc2ncc3c(N)cc(-c4cnc5c(c4C)NCCO5)cc3n2)cc1 | 
9 | 33.2 | 80 |  | Nc1cncc(-c2cc(N)c3cnc(Nc4cnn(C5CC5)c4)nc3c2)c1 | 
10 | 6.2 |  |  | Cc1c(-c2cc(N)c3cnc(Nc4ccccc4)nc3c2)cnc2c1NCCO2 | 
11 |  |  |  | CN1CCC(c2ncc(-c3cnc(N)c(OCc4cccc(C#CC(C)(C)O)c4)c3)s2)CC1 | IC50 [4]: < 100 nM
12 | 4.3 |  |  | Cc1c(-c2cc(N)c3cnc(Nc4ccc5c(c4)CCNC5)nc3c2)cnc2c1NCCO2 | 
13 | 6.9 |  |  | CCN1CCc2ccc(Nc3ncc4c(N)cc(-c5cnc6c(c5C)NCCO6)cc4n3)cc2C1 | 
14 |  | -6.9 | 30.3 | Nc1cc(-c2ccccn2)cc2nc(Nc3cnn(C4CC4)c3)ncc12 | 
15 | 5.5 |  |  | Cc1c(-c2cc(N)c3cnc(Nc4cccnc4)nc3c2)cnc2c1NCCO2 | 
16 |  | -5.1 | 25.8 | Cc1nn(C)cc1-c1cc(N)c2cnc(Nc3cnn(C4CC4)c3)nc2c1 | 
17 | 53 |  |  | Cc1c(-c2cc(N)c3cnc(Nc4cc(C)n(C)n4)nc3c2)cnc2c1NCCO2 | 
18 |  | -3.3 | 24.1 | Nc1cc(-c2ccncc2)cc2nc(Nc3cnn(C4CC4)c3)ncc12 | 
19 |  | 36.3 | 85.5 | N#Cc1ccncc1-c1cc(N)c2cnc(Nc3cnn(C4CC4)c3)nc2c1 | 
20 | 15.5 |  |  | CCn1ccc(Nc2ncc3c(N)cc(-c4cnc5c(c4C)NCCO5)cc3n2)n1 | 
21 | 50.5 | 68.6 | 95.8 | Cn1cc(-c2cc(N)c3cnc(Nc4cnn(C5CC5)c4)nc3c2)cn1 | 
22 | 35.7 |  |  | Cc1c(-c2cc(N)c3cnc(Nc4cnn(C)c4C)nc3c2)cnc2c1NCCO2 | 

Row | IC50 [1] [nM] | inhibition [2] [%] | inhibition [3] [%] | Compound | other results
23 | 5.2 |  |  | Cc1c(-c2cc(N)c3cnc(Nc4ccc5c(c4)CN(C(C)C)CC5)nc3c2)cnc2c1NCCO2 | 
24 | 12 |  |  | CCn1cc(Nc2ncc3c(N)cc(-c4cnc5c(c4C)NCCO5)cc3n2)cn1 | 
25 |  | 7.5 |  | Cc1nn(C)c(C)c1Nc1ncc2c(N)cc(-c3cnc4c(c3C)NCCO4)cc2n1 | 
26 |  | 23.2 | 49.2 | Cn1nccc1-c1cc(N)c2cnc(Nc3cnn(C4CC4)c3)nc2c1 | 
27 | 17.9 | 87.2 | 98.1 | Cc1ccncc1-c1cc(N)c2cnc(Nc3cnn(C4CC4)c3)nc2c1 | 
28 |  | 4.7 |  | Cc1c(-c2cc(N)c3cnc(NC(=O)C4CC4)nc3c2)cnc2c1NCCO2 | 
29 | 6.4 |  |  | Cc1c(-c2cc(N)c3cnc(Nc4cnn(C(C)C)c4)nc3c2)cnc2c1NCCO2 | 
30 | 5.7 | 96.3 |  | Cc1c(-c2cc(N)c3cnc(Nc4cnn(C5CC5)c4)nc3c2)cnc2c1NCCO2 | IC50 [5]: 23.1 nM; inhibition [6]: Active; inhibition [7]: Active
31 | 10.4 | 93 |  | Cc1c(N)cncc1-c1cc(N)c2cnc(Nc3cnn(C4CC4)c3)nc2c1 | 
32 | 4.8 |  |  | Cc1c(-c2cc(N)c3cnc(Nc4ccc5c(c4)CCN(C)C5)nc3c2)cnc2c1NCCO2 | 
33 | 7.8 |  |  | Cc1c(-c2cc(N)c3cnc(Nc4cnn(C)c4)nc3c2)cnc2c1NCCO2 | 
34 | 5 |  |  | CNCc1cccc(Nc2ncc3c(N)cc(-c4cnc5c(c4C)NCCO5)cc3n2)c1 | 
35 | 7.3 |  |  | COc1cc2c(cc1Nc1ncc3c(N)cc(-c4cnc5c(c4C)NCCO5)cc3n1)CN(C)CC2 | 
36 |  | 36.2 | 85.9 | Cc1ccc(-c2cc(N)c3cnc(Nc4cnn(C5CC5)c4)nc3c2)cn1 | 
37 | 95.7 |  |  | Cc1c(-c2cc(N)c3cnc(Nc4ccccn4)nc3c2)cnc2c1NCCO2 | 
38 | 7.9 |  |  | Cc1nn(C)cc1Nc1ncc2c(N)cc(-c3cnc4c(c3C)NCCO4)cc2n1 | 
39 |  | 0.1 | 60.6 | COc1ncc(-c2cc(N)c3cnc(Nc4cnn(C5CC5)c4)nc3c2)cc1N | 
40 |  | 42.7 | 87.6 | Cc1cncc(-c2cc(N)c3cnc(Nc4cnn(C5CC5)c4)nc3c2)c1 | 
41 |  | 92.5 | 99.7 | CC1(C)OC(=O)c2ccc(Nc3ncc(-c4nnco4)c(N[C@H](CO)c4ccccc4)n3)cc21 | 
42 | 12.7 |  |  | Cc1c(-c2cc(N)c3cnc(Nc4ccn(C)n4)nc3c2)cnc2c1NCCO2 | 
43 | 3.1 | 97.9 |  | Cc1c(-c2cc3cc(NC(=O)C4CC4)ncc3c(N)c2F)cnc2c1NCCO2 | IC50 [8]: 0.067 nM; IC50 [9]: 84 nM; EC50 [10]: 16 nM; IC50 [5]: 6.1 nM; inhibition [11]: Active
